SMILES strings stand for the structures.

The series can be described thus: Human HepG2 cell viability assay in 384 well format. It is filed as toxicity, cell-based. The note with it: HepG2 cells, read-out: Inhibition. Set-up: dose 125 nL, time 70.5 hour; cytotoxicity at 70.5 h: concentration not given beside the values.
As for `Cc1nc(-c2ccc(CC(=O)N3CCN(C(=O)C4CC4)CC3)cc2)cs1`, the cytotoxicity at 70.5 h was -1.62%.

In the case of `O=C(Nc1nc2c(s1)CN(C(=O)NCc1cccs1)CC2)C1CC1`, the cytotoxicity at 70.5 h is -9.79%.

Consider `Cc1cc2n(n1)CC(CNC1CCN(C3CC3)CC1)CN2` (stereo not drawn), for which the cytotoxicity at 70.5 h was -4.14%.

Consider `CNC(=O)c1c(C)cccc1NCC(=O)Nc1cc(C)nn1C`, for which the cytotoxicity at 70.5 h came out at 8.71%.

As for `CSC1(CNc2ncc(Br)cn2)CCOCC1`, the cytotoxicity at 70.5 h is -0.0448%.

Take `COCCOC(=O)N1CCC(c2nccn2CC2CC2)CC1`: the cytotoxicity at 70.5 h is -4.36%.

Take `O=C(O)c1cc(-c2ccncc2)cc(S(=O)(=O)N2CCSCC2)c1`: the cytotoxicity at 70.5 h was -6.71%.

With `O=C(c1cccnc1)N1CCn2cc(CN3CCCC3)nc2C1`, the cytotoxicity at 70.5 h is -6.71%.

Take `CN1CCN(Cc2cnc3n2CCN(C(=O)N2CCCC2)C3)CC1`: the cytotoxicity at 70.5 h was -14.4%.

In the case of `Cc1[nH]c2c(C)ccc(C)c2c1CC(=O)NCc1csc(N(C)C)n1`, the cytotoxicity at 70.5 h turned out to be 17.8%.

Take `O=C1NCCN1C1CCN(Cc2nc(-c3ccccc3)no2)CC1`: the cytotoxicity at 70.5 h worked out at 13.9%.

For the compound `O=C(Nc1cn[nH]c1)c1ccc(O)nc1`, the cytotoxicity at 70.5 h amounted to 1.6%.

Consider `O=C(CCN1CCCC1=O)NCc1cccnc1Oc1ccccc1`, for which the cytotoxicity at 70.5 h was -3.36%.

On to `O=c1c2cn[nH]c2nc(SCCN2CCOCC2)n1-c1ccccc1`, for which the cytotoxicity at 70.5 h was -7.75%.

Consider `CCN(Cc1ccco1)C(=O)NCc1nnc2n1CCC2`, for which the cytotoxicity at 70.5 h was -13.2%.

With `CC(=O)N1CCCCC1c1nc2c(c(NC3CCCC3)n1)CN(C)CC2` (stereo not drawn), the cytotoxicity at 70.5 h is 17%.

For `CC(=O)N1CCOC(c2c(C(=O)O)sc3ccccc23)C1` (stereo not drawn), the cytotoxicity at 70.5 h was -7.22%.

As for `O=C(N[C@H]1CC[C@@]2(CCC(=O)N2CC2CC2)CC1)c1cnccn1`, the cytotoxicity at 70.5 h was -11%.

Regarding `Cc1nc(CO[C@H]2CN(C(=O)c3cccn3C)[C@@H]3COC[C@H]23)cs1`, the cytotoxicity at 70.5 h is -11.5%.

On to `N#Cc1ccc(OC[C@]23COC[C@H]2CN(Cc2nccs2)C3)nc1`, for which the cytotoxicity at 70.5 h is -4.7%.

Take `CC(=O)Nc1ccc(CN2C[C@H]3CC[C@@H]2CN(c2ncccn2)C3)cc1`: the cytotoxicity at 70.5 h was -4.04%.

Turning to `CCCc1nc(CN(C)CC2CCN(CCO)CC2)no1`, the cytotoxicity at 70.5 h stood at 14.7%.

With `CC(C)c1n[nH]c(C2CN(Cc3nnc(C4CC4)n3C)CCO2)n1` (stereo not drawn), the cytotoxicity at 70.5 h was -7.72%.

Consider `Cc1cccc2c1nc1n2[C@@H](CNC(=O)c2cncnc2)COC1`, for which the cytotoxicity at 70.5 h was -3.15%.

For the compound `CCc1nsc(NC2CCCn3nc(COC)nc32)n1` (stereo not drawn), the cytotoxicity at 70.5 h was -3.94%.

For `Cc1cc(NC(=O)CN2CCn3c(nnc3C3CC3)C2)n(C)n1`, the cytotoxicity at 70.5 h stood at 7.81%.

On to `COCCOc1ccnc(-c2noc([C@@H]3CCCN3CC(C)(C)C)n2)c1`, for which the cytotoxicity at 70.5 h came to 2.83%.

`CN(C)CC(O)Cn1cc(NCc2ccc(Br)cc2)cn1` (stereo not drawn): the cytotoxicity at 70.5 h is -2.01%.

Take `O=C(c1ccc(=O)[nH]n1)N1CCCC1CCc1ccccc1` (stereo not drawn): the cytotoxicity at 70.5 h is -11.9%.

As for `CC(C)c1cc(NCc2csc(N(C)C)n2)nc(N)n1`, the cytotoxicity at 70.5 h amounted to 17.1%.

`Fc1ccc(CN2CCCCC2Cn2cncn2)c2ncccc12` (stereo not drawn): the cytotoxicity at 70.5 h was determined as 25.5%.

Take `NC(=O)c1cnc2n1CCN(C(=O)c1cccc(Cn3cccn3)c1)C2`: the cytotoxicity at 70.5 h is -5.38%.

On to `CC(C)C(=O)N1CCC2(CC1)[C@@H]1CN(C(=O)N(C)C)C[C@@H]1C(=O)N2C`, for which the cytotoxicity at 70.5 h was 28.3%.

With `Cn1cc(CN2CCC(CCC(=O)NC3CC3)CC2)cn1`, the cytotoxicity at 70.5 h is 0.934%.

On to `CC(C)Cn1nc(-c2ccc(C(=O)O)cc2)cc1-c1ccc(F)cc1`, for which the cytotoxicity at 70.5 h was -5.39%.

For `Cc1nc(C)n(CC2CN(CCc3ccccc3Cl)CCO2)n1` (stereo not drawn), the cytotoxicity at 70.5 h was determined as 39.5%.

For the compound `OCCN1CCCCC1C1OCCO1` (stereo not drawn), the cytotoxicity at 70.5 h came out at 0.562%.

For the compound `Cc1cc(C)c(C(=O)N2CCN(c3ncccc3C#N)CC2)c(=O)[nH]1`, the cytotoxicity at 70.5 h came out at 1.08%.

With `N#Cc1cccnc1N1CCCN(C(=O)CCc2nccs2)CC1`, the cytotoxicity at 70.5 h was -1.9%.

Turning to `COc1ccc(CN(C)Cc2c(C)noc2C)c(Cl)c1OC`, the cytotoxicity at 70.5 h is -8.81%.

For the compound `CC(CN1CCCC1=O)NC(=O)c1ccc(-c2ccco2)[nH]c1=O` (stereo not drawn), the cytotoxicity at 70.5 h was -96.6%.

On to `O=C(NC1CC1)[C@@H]1C[C@@H]2CCN(Cc3ccccc3)C[C@@H]2O1`, for which the cytotoxicity at 70.5 h worked out at 25.4%.

On to `Cc1nc2c(C)cccc2cc1C(=O)N1CCC2(CCNCC2)CC1`, for which the cytotoxicity at 70.5 h is -5.65%.

As for `Cc1c(C)n2c(SCC(=O)N3CCC(C)CC3)nnc2[nH]c1=O`, the cytotoxicity at 70.5 h was -4.99%.

As for `CN1CCC2(CC1)CN(C(=O)c1cccnc1)Cc1ccccc12`, the cytotoxicity at 70.5 h was 9.45%.

With `O=C(Cn1c(=O)nc2n1C(=O)N(c1ccccc1)C2)NC1CCCCC1`, the cytotoxicity at 70.5 h was -7.65%.

In the case of `O=C(Cc1ccncc1)N1C[C@@H]2CC[C@H](C1)N(Cc1ccccc1)C2=O`, the cytotoxicity at 70.5 h is -3.45%.

Take `CCOCC1CN(Cc2cnn(C)c2)Cc2nn(CC3CC3)cc21` (stereo not drawn): the cytotoxicity at 70.5 h was -10.4%.

Consider `COC1COC2(CCN(Cc3ccc(Cl)cc3)CC2)C1` (stereo not drawn), for which the cytotoxicity at 70.5 h came to 6.16%.

`CN1CC(=O)N(c2cccc(F)c2)CC12CCN(Cc1cncn1C)C2` (stereo not drawn): the cytotoxicity at 70.5 h is -4.15%.

Take `c1ccc(-c2noc([C@@H]3Cc4nc[nH]c4CN3)n2)cc1`: the cytotoxicity at 70.5 h was -14%.

As to `CS(=O)(=O)N1CCCC(n2nnn(-c3ccccc3)c2=O)C1` (stereo not drawn), the cytotoxicity at 70.5 h is -8.01%.

For `O=C(Nc1cccnn1)NC(CCCO)c1ccccc1` (stereo not drawn), the cytotoxicity at 70.5 h is -14.5%.

Turning to `CNC(=O)CN1CC[C@H]2CN(C(=O)c3cccc(C)c3)C[C@H]2C1`, the cytotoxicity at 70.5 h was -2.46%.

For the compound `Cn1nc(CN2CCC(c3ccncc3)CC2)c2c(Cl)cccc21`, the cytotoxicity at 70.5 h was -0.977%.

On to `Cc1cc(C2CCCN(CC(=O)N3CCc4ccccc43)C2)n[nH]1` (stereo not drawn), for which the cytotoxicity at 70.5 h was -6.5%.

Turning to `CCOC(=O)Cc1cs/c(=N/C(=O)COc2cnc(C)cc2O)[nH]1`, the cytotoxicity at 70.5 h worked out at 5.42%.

Regarding `OC[C@@H]1[C@@H](c2ccccc2)CN2CCN(c3ccccn3)C[C@H]12`, the cytotoxicity at 70.5 h was -3.64%.

Turning to `COC1COC2(CCN(Cc3ccccc3C)CC2)C1` (stereo not drawn), the cytotoxicity at 70.5 h is -13.2%.

As to `C1CCN(CCN2CCCCC2C2OCCO2)CC1` (stereo not drawn), the cytotoxicity at 70.5 h is 3.91%.

Regarding `O=C(CCS(=O)(=O)C1CCCC1)NCCc1cccnc1`, the cytotoxicity at 70.5 h is -6.71%.

`COCCCN(C)c1cc(C(F)(F)F)nc(-c2cccnc2)n1`: the cytotoxicity at 70.5 h is -5.74%.

Take `CC(C)C(=O)Nc1cc(C(=O)NC2CC(C)(C)NC(C)(C)C2)nn1C`: the cytotoxicity at 70.5 h is 14.5%.

Turning to `CO[C@H]1CN(C(=O)c2ccc3oc(C)cc3c2)CC[C@@]12CCCO2`, the cytotoxicity at 70.5 h is -13.4%.

As for `Cc1cc(C)nc(N2CCCC(Cn3cc(CN(C)C)nn3)C2)n1` (stereo not drawn), the cytotoxicity at 70.5 h was -6.18%.

Turning to `Cn1nccc1C1CCN(CC(O)c2cccc(F)c2)CC1` (stereo not drawn), the cytotoxicity at 70.5 h was -8.37%.

In the case of `CCCN1CCN(C(=O)c2ccc3ccccc3n2)[C@H]2CS(=O)(=O)C[C@H]21`, the cytotoxicity at 70.5 h came to 13.2%.

For `Cc1nonc1CN(C)Cc1cnn(-c2ccc(Cl)cc2)c1`, the cytotoxicity at 70.5 h was -3.48%.

Consider `CCC(=O)N1CC[C@H](O)[C@@H]1Cc1ccccc1`, for which the cytotoxicity at 70.5 h is -9.02%.

Regarding `Cc1nc(CN2CCCN(C(=O)c3c(C)noc3C)CC2)cs1`, the cytotoxicity at 70.5 h is -5.02%.

As to `CC(=O)N1CC[C@H](c2nc3cc(C)ccc3o2)C1`, the cytotoxicity at 70.5 h was determined as 0.212%.

With `CN1C(=O)CC[C@@H]2N(C(=O)CCc3cccnc3)CCCC[C@@]21C`, the cytotoxicity at 70.5 h is -1.68%.

For `Cc1ncc2c(n1)CN(CCCOc1ccc(C#N)cc1)CC2`, the cytotoxicity at 70.5 h is 3.97%.

For `CC(C)(C)n1ncc(NCC(O)c2ccc(F)c(F)c2)c(Cl)c1=O` (stereo not drawn), the cytotoxicity at 70.5 h was -0.243%.

For the compound `CCC(CO)N(Cc1cccs1)C(=O)CSC` (stereo not drawn), the cytotoxicity at 70.5 h was 11.9%.

On to `CCOc1ccccc1C(=O)NCc1nncn1C1CC1`, for which the cytotoxicity at 70.5 h was 3.5%.

Consider `Cn1nccc1CNC(=O)Nc1cc(C(F)(F)F)c[nH]c1=O`, for which the cytotoxicity at 70.5 h was -7.39%.

Take `CN(C)c1ccc(CNC2=NCCCN2)cc1`: the cytotoxicity at 70.5 h amounted to 13.3%.

With `Cc1cc(C(=O)N2CCC(O)(Cn3c(C)cc4ccncc43)CC2)on1`, the cytotoxicity at 70.5 h is -0.77%.

Turning to `CCn1ccnc1CN(C)C1CCCN(CCCc2ccccc2)C1` (stereo not drawn), the cytotoxicity at 70.5 h was found to be 18.6%.

As for `CNc1cnc(CC2COCCN(CCOc3ccccc3)C2)cn1` (stereo not drawn), the cytotoxicity at 70.5 h is -1.63%.

Take `CC(C)N1CCC(CNCc2c[nH]nc2C(C)(C)C)C1` (stereo not drawn): the cytotoxicity at 70.5 h was -0.871%.

Consider `CC(C)C(CCO)NC(=O)Nc1ccc(-c2csnn2)cc1` (stereo not drawn), for which the cytotoxicity at 70.5 h was -5.31%.

Consider `COc1c(C)cnc(CN2CCC(N(C)C(C)C(N)=O)CC2)c1C` (stereo not drawn), for which the cytotoxicity at 70.5 h is -2.64%.

Regarding `Cn1ccnc1CN1CCCN(C(=O)c2ccc3[nH]cnc3c2)CC1`, the cytotoxicity at 70.5 h is -8.02%.

As to `COCC1CN(S(=O)(=O)Cc2ccc(C)cc2)Cc2c1cnn2C` (stereo not drawn), the cytotoxicity at 70.5 h was -6.77%.

For the compound `Cc1cc(C)cc(N2CCN(Cc3cccc(CCN)c3)CC2=O)c1`, the cytotoxicity at 70.5 h was -2.46%.

On to `CSCC[C@H](N)C(=O)N1CC(Oc2ccccc2C)C1`, for which the cytotoxicity at 70.5 h is -3.44%.

As for `Cc1cc(CN2CCC(CNC(=O)CN3CCCCCC3)C2)[nH]n1` (stereo not drawn), the cytotoxicity at 70.5 h came out at 14.2%.

Consider `CC1COCCN1C(=O)c1ccc(=O)n(Cc2ccccc2)n1` (stereo not drawn), for which the cytotoxicity at 70.5 h was -4.29%.

Regarding `CC(C)(CNC(=O)c1ccco1)NC(=O)OC(C)(C)C`, the cytotoxicity at 70.5 h is -12.7%.

For the compound `CC(C)c1n[nH]c(C2CN(C(=O)c3cc(C4CC4)[nH]n3)CCO2)n1` (stereo not drawn), the cytotoxicity at 70.5 h is -10.5%.

Regarding `CSCCC(C)(O)CNS(=O)(=O)Cc1ccc(F)cc1` (stereo not drawn), the cytotoxicity at 70.5 h is -17%.

For the compound `CN(C)C[C@H]1OC[C@@H]2CN(C(=O)NCc3cccc(F)c3)CC[C@@H]21`, the cytotoxicity at 70.5 h is -5.06%.

As for `O=C(CN(Cc1cccs1)C1CCS(=O)(=O)C1)NCCc1cccs1` (stereo not drawn), the cytotoxicity at 70.5 h is -2.26%.

`CN1CCN(C(=O)CCn2ncc3ccccc32)CC(C(N)=O)C1` (stereo not drawn): the cytotoxicity at 70.5 h was -6.19%.

As to `Cc1cc(NC(=O)CN2CCCC(Cn3cncn3)C2)on1` (stereo not drawn), the cytotoxicity at 70.5 h is -3%.

As to `COC(=O)c1sc2cccc(F)c2c1CNC(=O)C1CCOC1` (stereo not drawn), the cytotoxicity at 70.5 h is -2.33%.

For the origin of these results see ChEMBL document CHEMBL3507680, “University of Dundee, Gates Library screen for HepG2 cell viability”.
